Read-outs that look alike come from different tables or passages of the source.
What was measured:
[1] = target: T1, Porcine pancreatic phospholipase A2 (Sus scrofa, UniProt P00592); assay: Phospholipase A2 inhibitory activity, method A (egg yolk lecithin substrate); assay type: biochemical; conditions: 1,000 ppm, 37°C for 30 minutes, read-out: % inhibition of PLA2 (1,000 ppm)
T1 construct: purchased Boehringer Mannheim·Yamanouchi K.K. 161454·122416
Protocol: To 10 mg of egg yolk lecithin (manufactured by Wako Pure Chemical Industries Ltd.), 1 ml of glycerine, 2 ml of a 50 mM Tris-HCl buffer solution (pH7.5) [Tris(hydroxymethyl)aminomethane (manufactured by Nacalai Tesque K.K.) was adjusted to pH7.5 with hydrochloric acid], 0.5 ml of a 150 mM calcium chloride solution (calcium chloride was dissolved in a 50 mM Tris-HCl buffer solution) and 0.5 ml of a 0.05% Triton-X100 (manufactured by Nacalai Tesque K.K.) solution (Triton-X100 was dissolved in a 50 mM Tris-HCl buffer solution), were added and dispersed by an agate mortar or dispersed by an ultrasonic processor (Model W-225, manufactured by Heat System-Ultrasonics, Inc.) for 5 minutes (30W) to obtain a substrate.
Porcine pancreatic phospholipase A2 [(161454·122416) manufactured by Boehringer Mannheim·Yamanouchi K.K.] was used.
To a 96 well microtitration plate (flat bottom, manufactured by Sumitomo Bakelite Medical Co., Ltd.), 40 µl of the substrate, 5 µl of a solution prepared by dissolving 10 mg of a test compound in 500 µl of dimethylsulfoxide, followed by an addition of 500 µl of a 50 mM Tris-HCl buffer solution, and 5 µl of an enzyme solution of 20 ng/ml (prepared by diluting the enzyme in a 50 mM Tris-HCl buffer solution), were added and reacted at 37°C for 30 minutes. After termination of the reaction, the released free fatty acid was quantitatively analyzed in accordance with the ACS-ACOD (acyl CoA synthetase-acyl CoA oxidase) method [a kit of NEFA C test wako (manufactured by Wako Pure Chemical Industries, Ltd.) was used]. The quantitative analysis was made by means of Microplate ELISA Reader (Model 2550EIA Reader, manufactured by Bio-Rad Laboratories) at a wavelength of 540 nm. Separately, such experiments as mentioned above, were carried out at various concentrations (2 µg/ml, 1 µg/ml and 0.5 µg/ml) of phospholipase A2 without a test compound. Then, the concentration of the free fatty acid versus the concentration of phospholipase A2 was plotted.
From this standard curve, the apparent concentration of phospholipase A2 in the case with a test compound, was read. Then, the percent inhibition of the enzyme was calculated by the following formula. Percent inhibition (%) = (l -(A)/(B)) x 100 [formula] • A: Apparent enzyme concentration when a test compound is added. • B: True enzyme concentration when a test compound is added.

[2] = Acute toxicity, intravenous injection (LD50); assay type: in vivo; conditions: mouse, in vivo, ddy male mice, sodium salt, mortality over one week
Protocol: Administration route: Intravenous injection
Using ddy male mice (body weight: 25 - 30 g), each test group consisted of 5 mice. A test compound was dissolved in the form of a sodium salt in a physiological saline or in a 5% glucose aqueous solution, and intravenously injected in an amount of 0.1 ml/10 g body weight. After the injection, the mortality rate was obtained over one week, and the median lethal dose LD50 (mg/kg) was determined.

[3] = tested on: experimental acute pancreatitis model; assay: Effects against acute pancreatitis (Test Example 8, closed duodenal loop method, lesion scores); assay type: in vivo, Crj-CD male rats; conditions: sodium salt, 6 hours after ventrotomy; for inhibition in vivo at 10 mg/kg: Rattus norvegicus, 10 mg/kg single intravenous injection
Summary of the method: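 Closed duodenal loop pancreatitis in male Crj-CD rats (n=3) under halothane/nitrous oxide; sodium-salt compounds given i.v. into tail vein by continuous infusion or bolus, controls untreated. At 6 h, four pancreatic lesions scored 0-3; inhibition % of total and hemorrhagic scores calculated versus control.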

[4] = target: T1, Porcine pancreatic phospholipase A2; assay: Phospholipase A2 inhibitory activity, method B (L-α-dipalmitoylphosphatidylcholine substrate); assay type: biochemical; conditions: 1,000 ppm, 37°C for 30 minutes, read-out: % inhibition of PLA2 (1,000 ppm)
Summary of the method: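 Substrate: L-α-dipalmitoylphosphatidylcholine/sodium cholate mixed micelles in 250 mM NaCl, 100 mM Tris-HCl pH 8.0. Enzyme (10 µg/ml stock) incubated with compound in buffer containing CaCl2 and BSA, 30 min at 37 °C. Released free fatty acid measured by ACS-ACOD at 540 nm; % inhibition derived from apparent enzyme concentration read off a standard curve.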

carrageenin edema = assay: Inhibitory activity on carrageenin edema; assay type: in vivo, Wistar male rats; conditions: rat, paw swelling volume three hours after carrageenin; for Inhibition rate (%): dose 50 mg/kg orally; for inhibition in vivo at 100 mg/kg: po, 3 h, dose 100 mg/kg orally, read-out: Inhibition rate (%)
Protocol: Using Wistar male rats (body weight: about 100 g), each test group consisted of 5 rats. A test compound was mixed with Tween 80 [polyoxyethylenesorbitan monooleate (manufactured by Nacalai Tesque K.K.)], and distilled water was added thereto to obtain a 2% Tween 80 suspension, or it was dissolved in the form of a salt in water to obtain an aqueous solution. Either the suspension or the aqueous solution was orally administered in an amount of 200 mg/kg, 100 mg/kg, 50 mg/kg or 25 mg/kg. One hour later, 0.1 ml of a 1% λ-carrageenin solution dissolved in a physiological saline was injected subcutaneously to the right hind paw of each rat to cause inflamation. Three hours later, the paw volume was measured by a paw volume measuring device (manufactured by Ugobasiee K.K.). A swelling volume was obtained from the difference from the value before the inflammation. Inhibition rate (%) = (l -(F)/(E)) x 100 [formula] • F: Average swelling volume in the group to which a test compound was administered. • E: Average swelling volume in the control group.

[5] = tested on: increased vascular permeability induced by acetic acid; assay: Inhibitory activity on increased vascular permeability induced by acetic acid (Mouse Whittle method, method C); assay type: in vivo, ddy male mice; conditions: amount of leaked dye
Protocol: Using ddy male mice, each test group consisted of 4 or 5 mice. A test compound was mixed with Tween 80 [polyoxyethylenesorbitan monooleate (manufactured by Nacalai Tesque K.K.)], and distilled water was added thereto to obtain a 2% Tween 80 suspension, or it was dissolved in the form of a salt in water to obtain an aqueous solution. A test compound was orally administered, and upon expiration of one hour from the administration, 0.7% acetic acid was intraperitonially injected to each mouse in an amount of 0.1 ml/10 g, and at the same time, 2% brilliant blue was intravenously injected into the tail vein in an amount of 0.1 ml/20 g. Thirty minutes after the injection of brilliant blue, the cervical vertebrae were dislocated under anesthesia by chloroform, and the abdorminal cavity was washed with 5 ml of a physiological saline. The washing solution was subjected to centrifugal separation at 3,000 rpm for 10 minutes, and the amount of the dye in the supernatant was measured at 600 nm absorbance by Microplate ELISA Reader (Model 2550EIA Reader, manufactured by Bio-Rad Laboratories). The inhibition rate of the amount of leaked dye in the group in which a test compound was administered relative to the control group was obtained by the following formula. Inhibition rate (%) = (l -(C)/(D)) x 100 [formula] • C: Amount of leaked dye in the group to which a test compound was administered. • D: Amount of leaked dye in the control group.

[6] = read-out: Inhibition rate of hemorrhagic lesions (%)
[7] = read-out: Inhibition rate of pancreatitis lesions (%)

T1 sequence (P00592 23-146): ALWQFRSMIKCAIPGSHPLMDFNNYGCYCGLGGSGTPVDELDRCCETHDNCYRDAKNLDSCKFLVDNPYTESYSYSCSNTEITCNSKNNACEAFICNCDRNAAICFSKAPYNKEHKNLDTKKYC

SMILES	inhibition at 1000 ppm [1] [%]	LD50 at 168 h ([2]; iv) [mg/kg]	inhibition at 1000 ppm [4] [%]	inhibition in vivo at 10 mg/kg [3, 6] [%]	inhibition in vivo at 10 mg/kg [3, 7] [%]	Inhibition rate (%) ([5]; dose 20 mg/kg orally)	also measured
O=C(Nc1cc(C(F)(F)F)cnc1NS(=O)(=O)c1ccccc1)C(F)(F)F [compound 24]	66	> 150	–	–	–	–	Inhibition rate of hemorrhagic lesions (%) ([3]; 11 mg/kg continuous intravenous injection): 68%
CCCOC(=O)Nc1cc(C(F)(F)F)cnc1NS(=O)(=O)C(C)C [compound 106]	–	–	78	96	97	–	Inhibition rate (%) (carrageenin edema): 19%; LD50 at 168 h [2]: > 20 mg/kg
CS(=O)(=O)Nc1ncc(C(F)(F)F)cc1NC(=O)C(F)(F)F [compound 12]	89	> 150	–	–	–	–	–
CS(=O)(=O)Nc1ncc(C(F)(F)F)cc1NC(=O)c1ccc(F)c(F)c1 [compound 77]	–	> 80	61	66	70	–	Inhibition rate (%) (carrageenin edema): 22%
CS(=O)(=O)Nc1ncc(C(F)(F)F)cc1NC(=O)Cc1ccccc1 [compound 60]	–	> 60	41	92	94	–	Inhibition rate (%) (carrageenin edema): 27%
O=C(NNc1ncc(C(F)(F)F)cc1NC(=O)C(F)(F)C(F)(F)F)c1ccccc1 [compound 39]	41	–	–	–	–	53	inhibition in vivo at 100 mg/kg (carrageenin edema): 25%
CCOC(=O)NC(=S)Nc1cc(C(F)(F)F)cnc1NS(=O)(=O)CC [compound 21]	62	–	–	–	–	–	LD50 at 168 h [2]: > 75 mg/kg; Inhibition rate of hemorrhagic lesions (%) ([3]; 27 mg/kg continuous intravenous injection): 57%
CC(=O)OCC(=O)Nc1cc(C(F)(F)F)cnc1NS(C)(=O)=O [compound 63, N-(2-methylsulfonylamino-5-trifluoromethyl-3-pyridyl)acetoxyacetamide]	–	> 130	34	83	66	–	Inhibition rate (%) ([5]; dose 10 mg/kg orally): 41%
CCCCCCCCS(=O)(=O)Nc1ncc(C(F)(F)F)cc1NC(=O)C(F)(F)C(F)(F)F [compound 23]	37	–	–	–	–	33	inhibition in vivo at 100 mg/kg (carrageenin edema): 30%
CCCCCCCCCCCC(=O)Nc1cc(C(F)(F)F)cnc1NS(C)(=O)=O [compound 5]	39	–	–	–	–	–	Inhibition rate (%) ([5]; dose 50 mg/kg orally): 53%; inhibition in vivo at 100 mg/kg (carrageenin edema): 37%
CCCCOC(=O)Nc1cc(C(F)(F)F)cnc1NS(C)(=O)=O [compound 17]	46	–	–	–	–	–	Inhibition rate (%) ([5]; dose 50 mg/kg orally): 31%; LD50 at 168 h [2]: 50 to 100 mg/kg; Inhibition rate of hemorrhagic lesions (%) ([3]; 20 mg/kg continuous intravenous injection): 73%
CS(=O)(=O)Nc1ncc(C(F)(F)F)cc1NC(=O)C1CCCCC1 [compound 8]	81	> 25	–	–	–	48	–
CCS(=O)(=O)Nc1ncc(C(F)(F)F)cc1NC(=O)C(F)(F)Cl [compound 20]	74	–	–	–	–	48	–
CCOC(=O)Nc1cc(C(F)(F)F)cnc1NS(C)(=O)=O [compound 15]	62	–	–	45	61	–	Inhibition rate (%) ([5]; dose 50 mg/kg orally): 41%; LD50 at 168 h [2]: 100 to 150 mg/kg
C=CC(=O)Nc1cc(C(F)(F)F)cnc1NS(=O)(=O)CC [compound 49]	30	175	–	–	–	50	Inhibition rate of hemorrhagic lesions (%) ([3]; 42 mg/kg continuous intravenous injection): 68%
CCCCCCCCC(=O)Nc1cc(C(F)(F)F)cnc1NS(C)(=O)=O [Compound No. 4]	74	–	–	–	–	–	Inhibition rate (%) ([5]; dose 50 mg/kg orally): 43%
CC(C)(C)CC(=O)Nc1cc(C(F)(F)F)cnc1NS(C)(=O)=O [compound 7]	–	–	50	–	–	53	–
CC=CC=CC(=O)Nc1cc(C(F)(F)F)cnc1NS(C)(=O)=O [compound 73]	–	> 80	53	74	79	–	Inhibition rate (%) (carrageenin edema): 20%
CNc1ncc(C(F)(F)F)cc1NC(=O)C(F)(F)C(F)(F)F [compound 41]	89	–	–	–	–	–	Inhibition rate (%) ([5]; dose 100 mg/kg orally): 85%
